Measured values as given in ChEMBL document CHEMBL4177610, “Discovery of a novel 2,4-dimethylquinoline-6-carboxamide M4 positive allosteric modulator (PAM) chemotype via scaffold hopping” (Bioorg Med Chem Lett, 2017).
Activity calls are given as the source filed them. The calls are words filed in the database; no cut-off is given here.

Tests used:
[1] = target: T1, Muscarinic acetylcholine receptor M4 (Rattus norvegicus, UniProt P08485); assay: (§1) Positive allosteric modulation of rat M4 receptor expressed in CHO cells co-expressing Gqi5 assessed as increase in acetylcholine-induced calcium mobilization; format: functional, cell-based
T1 sequence (P08485 whole entry): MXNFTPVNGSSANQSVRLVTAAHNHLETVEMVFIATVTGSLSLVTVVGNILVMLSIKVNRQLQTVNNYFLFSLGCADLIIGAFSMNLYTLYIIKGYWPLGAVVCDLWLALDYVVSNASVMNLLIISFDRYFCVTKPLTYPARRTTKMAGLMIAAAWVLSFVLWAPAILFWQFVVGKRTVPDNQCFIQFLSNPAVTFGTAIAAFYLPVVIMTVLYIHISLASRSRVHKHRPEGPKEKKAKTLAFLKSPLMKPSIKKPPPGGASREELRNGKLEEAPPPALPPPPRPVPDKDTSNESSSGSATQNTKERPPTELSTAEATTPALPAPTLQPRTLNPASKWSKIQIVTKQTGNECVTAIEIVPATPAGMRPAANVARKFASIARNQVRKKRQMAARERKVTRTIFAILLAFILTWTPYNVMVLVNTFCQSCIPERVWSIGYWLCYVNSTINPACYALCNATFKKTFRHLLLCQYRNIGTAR

[2] = target: T2, Muscarinic acetylcholine receptor M4 (Rattus norvegicus) (UniProt P08485); assay: Positive allosteric modulation of rat M4 receptor expressed in CHO cells co-expressing Gqi5 assessed as increase in acetylcholine-induced calcium mobilization relative to acetylcholine; format: functional, cell-based
T2 sequence (whole entry): T1 sequence (P08485 whole entry)

[3] = Intrinsic clearance in rat liver microsomes; format: ADME, microsome; settings: read-out: CLH
[4] = Intrinsic clearance in human liver microsomes; format: ADME, microsome; settings: read-out: CLH
[5] = Fraction unbound in rat plasma; format: ADME, cell-free
[6] = Fraction unbound in human plasma; format: ADME, cell-free
[7] = Fraction unbound in rat brain; format: ADME, tissue-based
[8] = Brain to plasma partition coefficient, Kp of the compound in Sprague-Dawley rat at 0.2 mg/kg, iv measured after 0.25 hrs; format: ADME, organism-based; settings: brain and plasma
[9] = Ratio of unbound brain to plasma concentration in Sprague-Dawley rat at 0.2 mg/kg, iv measured after 0.25 hrs; format: ADME, organism-based; settings: brain and plasma, read-out: K(p,uu,brain)
[10] = target: T2, Muscarinic acetylcholine receptor M4 (Rattus norvegicus); assay: as §1; format: functional, cell-based

| SMILES | EC50 ([1]; read-out: EC50) [nM] | %max [2] [%] | also measured |
| --- | --- | --- | --- |
| Cc1cc(C)c2cc(C(=O)NC3CN(c4ccc(F)c(F)c4)C3)ccc2n1 | 856 | 55 | – |
| Cc1cc(C)c2cc(C(=O)NC3CN(c4cnc(C(F)(F)F)cn4)C3)ccc2n1 | 1160 | 75 | – |
| Cc1cc(C)c2cc(C(=O)NC3CN(c4cccc(Cl)n4)C3)ccc2n1 | 440 | 77 | – |
| Cc1cc(C)c2cc(C(=O)NC3CN(c4ncc(OC(C)C)cn4)C3)ccc2n1 | 6140 | 73 | – |
| Cc1cc(C)c2cc(C(=O)NC3CN(c4ccnc(OC(F)F)c4)C3)ccc2n1 | 1130 | 86 | – |
| Cc1cc(C)c2cc(C(=O)NC3CN(c4ccnc(F)c4F)C3)ccc2n1 | 332 | 82 | CLint scaled [3]: 232 mL/min/kg; CLint scaled [4]: 129 mL/min/kg; fraction unbound [5]: 0.013; fraction unbound [6]: 0.009; fraction unbound [7]: 0.023; Kp at 0.25 h [8]: 0.17; Kp uu at 0.25 h [9]: 0.3 |
| Cc1cc(C)c2cc(C(=O)NC3CN(c4ncc(F)cn4)C3)ccc2n1 | > 10000 | 61 | – |
| Cc1cc(C)c2cc(C(=O)NC3CN(c4ncc(C(F)(F)F)cn4)C3)ccc2n1 | 3910 | 66 | – |
| Cc1cc(C)c2cc(C(=O)NC3CN(c4ccnc(C(F)(F)F)c4)C3)ccc2n1 | 820 | 61 | – |
| Cc1cc(C)c2cc(C(=O)NC3CN(c4ccc(Cl)cn4)C3)ccc2n1 | 967 | 84 | – |
| Cc1cc(C)c2cc(C(=O)NC3CN(c4cc(Cl)ncc4Cl)C3)ccc2n1 | 307 | 57 | CLint scaled [3]: 295 mL/min/kg; CLint scaled [4]: 160 mL/min/kg; fraction unbound [5]: 0.002; fraction unbound [6]: 0.002; fraction unbound [7]: 0.006; Kp at 0.25 h [8]: 0.1; Kp uu at 0.25 h [9]: 0.3 |
| Cc1cc(C)c2cc(C(=O)NC3CN(c4ccc(C(F)(F)F)cn4)C3)ccc2n1 | 1080 | 77 | – |
| Cc1ccc(OC2CCN(c3ncnc4ccc(F)cc34)CC2)cn1 | 225 | – | – |
| Cc1cc(C)c2cc(C(=O)NC3CN(c4ccc(OC(F)F)nc4)C3)ccc2n1 | – | 43 | pEC50 [10]: inactive; EC50 ([1]; cho): Not Active |
| Cc1cc(C)c2cc(C(=O)NC3CN(c4cnc(C5CC5)cn4)C3)ccc2n1 | 1070 | 82 | – |
| Cc1cc(C)c2cc(C(=O)NC3CN(c4ncc(F)cc4Cl)C3)ccc2n1 | 401 | 72 | – |
| Cc1cc(C)c2cc(C(=O)NC3CN(c4ncc(Cl)cc4Cl)C3)ccc2n1 | 587 | 70 | – |
| Cc1cc(C)c2cc(C(=O)NC3CN(c4ncc(Cl)cc4F)C3)ccc2n1 | 453 | 82 | – |
| Cc1cc(C)c2cc(C(=O)NC3CN(c4cc(Cl)nc(Cl)c4)C3)ccc2n1 | 225 | 44 | – |
| Cc1cc(C)c2cc(C(=O)NC3CN(c4ncccc4Cl)C3)ccc2n1 | 935 | 82 | – |
| COc1nc2sc(C(=O)NC3CC3)c(N)c2c(C)c1Cl | 225 | – | – |
| COc1cc(N2CC(NC(=O)c3ccc4nc(C)cc(C)c4c3)C2)c(Cl)cn1 | 383 | 62 | CLint scaled [3]: 178 mL/min/kg; CLint scaled [4]: 106 mL/min/kg; fraction unbound [5]: 0.002; fraction unbound [6]: 0.002; fraction unbound [7]: 0.008; Kp at 0.25 h [8]: 0.84; Kp uu at 0.25 h [9]: 3.36 |
| Cc1cc(C)c2cc(C(=O)NC3CN(c4ccc(C(F)(F)F)nc4)C3)ccc2n1 | 449 | 85 | CLint scaled [3]: 94 mL/min/kg; CLint scaled [4]: 36 mL/min/kg; fraction unbound [5]: 0.004; fraction unbound [6]: 0.005; fraction unbound [7]: 0.016; Kp at 0.25 h [8]: 0.05; Kp uu at 0.25 h [9]: 0.2 |
| COc1ccc(CNC(=O)c2sc3nnc(C)c(C)c3c2N)cc1F | 225 | – | – |
| Cc1cc(N2CC(NC(=O)c3ccc4nc(C)cc(C)c4c3)C2)cc(OC(F)F)n1 | 1060 | 71 | – |
| Cc1cc(C)c2cc(C(=O)N3CCCC3)ccc2n1 | – | 18.3 | pEC50 [10]: inactive; EC50 ([1]; cho): Not Active |
| COc1ccc(C)c2sc(NC(=O)c3ccncc3)nc12 | 225 | – | – |
| COc1ccc(CNC(=O)c2ccc3nc(C)cc(C)c3c2)cc1F | > 10000 | 63 | – |
